The text below walks through data of patent publication US20230234967A1, “Fused Azole Heterocycles as AHR Antagonists” (Senda Biosciences, Inc., priority 2021, published 2023).

The assay has as its target T1, AHR (Homo sapiens, UniProt P35869).
T1 construct: other cell line with a DRE-luciferase reporter stably transfected; endogenous in cells; host or cells: Human HepG2 liver carcinoma AhR-Lucia reporter cells
T1 sequence (P35869 11-848): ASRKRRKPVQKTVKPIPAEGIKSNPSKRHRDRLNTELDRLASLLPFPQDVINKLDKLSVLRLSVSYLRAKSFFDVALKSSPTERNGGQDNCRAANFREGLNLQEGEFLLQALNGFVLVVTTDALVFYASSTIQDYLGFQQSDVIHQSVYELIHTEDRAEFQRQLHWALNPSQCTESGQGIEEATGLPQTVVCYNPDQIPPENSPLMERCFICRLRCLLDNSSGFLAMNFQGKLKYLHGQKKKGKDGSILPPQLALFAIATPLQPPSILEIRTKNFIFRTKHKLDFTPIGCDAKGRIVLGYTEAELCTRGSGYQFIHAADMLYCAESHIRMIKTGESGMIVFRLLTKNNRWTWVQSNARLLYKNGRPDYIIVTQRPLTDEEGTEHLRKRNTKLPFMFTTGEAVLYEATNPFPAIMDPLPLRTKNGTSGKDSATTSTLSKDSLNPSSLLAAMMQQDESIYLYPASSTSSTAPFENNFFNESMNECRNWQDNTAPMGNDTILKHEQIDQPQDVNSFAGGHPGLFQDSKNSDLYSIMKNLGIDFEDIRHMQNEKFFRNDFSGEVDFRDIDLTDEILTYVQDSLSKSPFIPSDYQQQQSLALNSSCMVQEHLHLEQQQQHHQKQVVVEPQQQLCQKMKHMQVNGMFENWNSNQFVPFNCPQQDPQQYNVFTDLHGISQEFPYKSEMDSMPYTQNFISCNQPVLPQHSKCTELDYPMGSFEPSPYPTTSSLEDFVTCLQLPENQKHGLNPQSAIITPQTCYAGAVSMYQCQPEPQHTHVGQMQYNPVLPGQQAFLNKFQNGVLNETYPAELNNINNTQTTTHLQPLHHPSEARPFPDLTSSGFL
Briefly: DRE-Luciferase Reporter Assay (HepG2 AhR-Lucia reporter cells). Format: cell-based. As to conditions: AHR activating ligand at its EC50, luciferase read-out, read-out: HEPG2 Luc IC50. From the text: Example 27: DRE-Luciferase Reporter Assay
AHR binds to Dioxin Responsive Elements (DRE) upstream of genes that it activates. One measure of AHR activity is activation of a reporter gene, such as luciferase, downstream of one or multiple DRE elements. Luciferase activity will reflect activation and inhibition of AHR in the cells expressing his reporter. 20000 Human HepG2 liver carcinoma—AhR-Lucia reporter cells or Human HT29 colon adenocarcinoma—AhR reporter cells or other cell line with a DRE-luciferase reporter stably transfected were plated in Eagle's Minimal Essential Medium, 10% heat-inactivated FBS, 1×non-essential amino acids Pen-Strep (10,000 U/mL) and Normocin (100 ug/mL) in plates (96-well, 384-well or other plates) and incubated overnight at 37° C. in a CO2 incubator and treated with and without AhR antagonists at a log dilution starting at 100 uM.
After 1 hr that cells were plated an AHR activating ligand, such as TCDD, kynurenine, ITE (2-(1H-indole-3-ylcarbonyl)-4-thiazolecarboxylic methyl ester), VAF347, BNF (beta-naphthoflavone), FICZ (6-formylindolo(3,2-b) carbazole) or other AHR ligands at their specific EC50 concentration, were added to the cells with or without AHR antagonist.
Cells were incubated for 24 or 48 hours or another time point and then, supernatant was analyzed for determination of luciferase activity as a read-out of the AHR activation or inhibition. Luciferase was measured with the commercial kit QUANTI-Luc™ assay solution kit from Invivogen following the manufacturer's instructions.
The level of luciferase with only agonist ligand added was the maximum signal while the luciferase with […] was the minimum signal. IC50 values were determined as the concentration which inhibits half of the luciferase activity. “A” indicates an IC50 value less than 100 nM, “B” indicates an IC50 between 100 and 500 nM, “C” indicates an IC50 above 500 nM.

Take `Cn1nccc1C(=O)Nc1nc2ccc(-c3ccccc3N3CCCC3)nc2s1` [Product 21, 1-Methyl-N-(5-(2-(pyrrolidin-1-yl)phenyl)thiazolo[5,4-b]pyridin-2-yl)-1H-pyrazole-5-carboxamide]: the IC50 – broadly, the midpoint of a concentration-inhibition curve – is > 500 nM.

For the compound `Cn1cc(-c2ccc3nc(NC(=O)c4ccnn4C)sc3n2)cn1` [Product 22, 1-Methyl-N-(5-(1-methyl-1H-pyrazol-4-yl)thiazolo[5,4-b]pyridin-2-yl)-1H-pyrazole-5-carboxamide], the IC50 was in the range of 100 to 500 nM.

As to `CC(=O)Nc1nc2ccc(-c3ccccc3N(C)C)nc2s1` [Product 23, N-(5-(2-(dimethylamino)phenyl)thiazolo[5,4-b]pyridin-2-yl)acetamide], the IC50 is > 500 nM.

Regarding `Cn1nccc1C(=O)Nc1nc2ccc(-c3ccccc3O)nc2s1` [Product 24, N-(5-(2-hydroxyphenyl)thiazolo[5,4-b]pyridin-2-yl)-1-methyl-1H-pyrazole-5-carboxamide], the IC50 was > 500 nM.

`Cn1nccc1C(=O)Nc1nc2ccc(-c3cccnc3)nc2s1` [Product 26, 1-Methyl-N-(5-(pyridin-3-yl)thiazolo[5,4-b]pyridin-2-yl)-1H-pyrazole-5-carboxamide]: the IC50 fell in the range of 100 to 500 nM.

With `Cn1nccc1C(=O)Nc1nc2ccc(-c3ccccn3)nc2s1` [Product 27, 1-methyl-N-(5-(pyridin-2-yl)thiazolo[5,4-b]pyridin-2-yl)-1H-pyrazole-5-carboxamide], the IC50 lay in the range of 100 to 500 nM.

On to `Cn1nccc1C(=O)Nc1nc2ccc(-c3nccs3)nc2s1` [Product 28, 1-Methyl-N-(5-(thiazol-2-yl)thiazolo[5,4-b]pyridin-2-yl)-1H-pyrazole-5-carboxamide], for which the IC50 was > 500 nM.

Consider `Cc1nc(-c2ccc3nc(NC(=O)c4ccnn4C)sc3n2)sc1C` [Product 29, N-(5-(4,5-dimethylthiazol-2-yl)thiazolo[5,4-b]pyridin-2-yl)-1-methyl-1H-pyrazole-5-carboxamide], for which the IC50 was in the range of 100 to 500 nM.

On to `Cc1cnc(-c2ccc3nc(NC(=O)c4ccnn4C)sc3n2)s1` [Product 30, 1-Methyl-N-(5-(5-methylthiazol-2-yl)thiazolo[5,4-b]pyridin-2-yl)-1H-pyrazole-5-carboxamide], for which the half-inhibitory concentration (IC50) lay in the range of 100 to 500 nM.

As to `Cc1ncsc1-c1ccc2nc(NC(=O)c3ccnn3C)sc2n1` [Product 31, 1-Methyl-N-(5-(4-methylthiazol-5-yl)thiazolo[5,4-b]pyridin-2-yl)-1H-pyrazole-5-carboxamide], the IC50 lay in the range of 100 to 500 nM.

For `Cc1csc(-c2ccc3nc(NC(=O)c4ccnn4C)sc3n2)n1` [Product 32, 1-Methyl-N-(5-(4-methylthiazol-2-yl)thiazolo[5,4-b]pyridin-2-yl)-1H-pyrazole-5-carboxamide], the IC50 is > 500 nM.

For the compound `Cc1nc(C)c(-c2ccc3nc(NC(=O)c4ccnn4C)sc3n2)s1` [Product 33, N-(5-(2,4-dimethylthiazol-5-yl)thiazolo[5,4-b]pyridin-2-yl)-1-methyl-1H-pyrazole-5-carboxamide], the IC50 lay in the range of 100 to 500 nM.

Turning to `CC(C)C(=O)Nc1ccccc1-c1ccc2nc(NC(=O)c3ccnn3C)sc2n1` [Product 34, N-(5-(2-isobutyramidophenyl)thiazolo[5,4-b]pyridin-2-yl)-1-methyl-1H-pyrazole-5-carboxamide], the IC50 was > 500 nM.

Turning to `CC(=O)Nc1ccccc1-c1ccc2nc(NC(=O)c3ccnn3C)sc2n1` [Product 35, N-(5-(2-acetamidophenyl)thiazolo[5,4-b]pyridin-2-yl)-1-methyl-1H-pyrazole-5-carboxamide], the IC50 is > 500 nM.

Regarding `CC(=O)N(C)c1ccccc1-c1ccc2nc(NC(=O)c3ccnn3C)sc2n1` [Product 36, 1-methyl-N-(5-(2-(N-methylacetamido)phenyl)thiazolo[5,4-b]pyridin-2-yl)-1H-pyrazole-5-carboxamide], the IC50 is > 500 nM.

`CN(CCO)c1ccccc1-c1ccc2nc(NC(=O)c3ccnn3C)sc2n1` [Product 37, N-(5-(2-((2-hydroxyethyl)(methyl)amino)phenyl)thiazolo[5,4-b]pyridin-2-yl)-1-methyl-1H-pyrazole-5-carboxamide]: the IC50 was 100 to 500 nM.

Turning to `Cc1ccccc1-c1ccc2nc(NC(=O)N3CCN(C)CC3)sc2n1` [Product 40, 4-methyl-N-(5-(o-tolyl)thiazolo[5,4-b]pyridin-2-yl)piperazine-1-carboxamide], the IC50 was > 500 nM.

Turning to `Cc1ccccc1-c1ccc2sc(NC(=O)c3ccnn3C)nc2n1` [Product 41, 1-methyl-N-(5-(o-tolyl)thiazolo[4,5-b]pyridin-2-yl)-1H-pyrazole-5-carboxamide], the IC50 was > 500 nM.

Consider `Cc1ccccc1-c1cc2sc(NC(=O)c3ccnn3C)nc2cn1` [Product 42, 1-methyl-N-(6-(o-tolyl)thiazolo[4,5-c]pyridin-2-yl)-1H-pyrazole-5-carboxamide], for which the IC50 is > 500 nM.

Take `Cc1ccccc1-c1ccc2nc(NC(=O)c3ccnn3C)oc2n1` [Product 43, 1-methyl-N-(5-(o-tolyl)oxazolo[5,4-b]pyridin-2-yl)-1H-pyrazole-5-carboxamide]: the IC50 was > 500 nM.

As to `Cn1nccc1C(=O)Nc1cnc2cc(-c3ccccc3C(F)(F)F)[nH]c2c1` [Product 44, 1-methyl-N-(2-(2-(trifluoromethyl)phenyl)-1H-pyrrolo[3,2-b]pyridin-6-yl)-1H-pyrazole-5-carboxamide], the IC50 was in the range of 100 to 500 nM.

Regarding `Cn1ncnc1C(=O)Nc1cnc2cc(-c3ccccc3C(F)(F)F)[nH]c2c1` [Product 45], the IC50 is < 100 nM.

In the case of `Cc1ccccc1-c1cc2ncc(NC(=O)c3ncnn3C)cc2[nH]1` [Product 46], the IC50 is 100 to 500 nM.

Consider `Cc1ccccc1-c1cc2cnc(NC(=O)c3ccnn3C)nc2[nH]1` [Product 48], for which the IC50 was 100 to 500 nM.

`Cc1ccccc1-c1cc2ncc(NC(=O)c3ccnn3C)nc2[nH]1` [Product 50, 1-methyl-N-(6-(o-tolyl)-5H-pyrrolo[2,3-b]pyrazin-3-yl)-1H-pyrazole-5-carboxamide]: the IC50 was > 500 nM.
